Earlier results, collected in US4788322A, “Process for preparing ACHPA” (Merck & Co., Inc., priority 1987, dated 1988).
Square brackets hold non-standard residues; d marks the D form. Peptide text beside a SMILES is read from it. * marks the point of attachment. Sta = CC(C)C[C@H](N)[C@@H](O)CC(=O)O; Isovaleryl = CC(C)CC(=O)*

System: hog renin
Details: after injection of hog renin into nephrectomized rats; Gross et al., Science 1972

In the case of `CC(C)CC(=O)N[C@H](C(=O)N[C@H](C(=O)N[C@@H](CC(C)C)[C@@H](O)CC(=O)N[C@@H](C)C(=O)N[C@@H](CC(C)C)[C@@H](O)CC(=O)O)C(C)C)C(C)C` [pepstatin] (Isovaleryl-VV[Sta]A[Sta]-OH), the “blood pressure in vivo” value is given as “reduces blood pressure”.
